Laboratory results published in the supplement of paper PMC10307832.

What was measured:
Test in all cases: relative viability (nuclei count vs DMSO), 5 days (fraction); higher = more cells survive
A-427 = test system: A-427
Outline: (§1)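 Relative viability divides the nuclei count in treated wells by that in vehicle wells. Lung cancer cell lines were seeded in 1536-well plates, dosed by pin tool the next day, and fixed and stained after 5 days in one step with final 0.05% Triton X-100, 1% formaldehyde and 1 ug/ml Hoechst. Dosing was a single drug or a fixed anchor-drug dose plus five library-drug doses (not always all listed) in √10 steps, and values are medians of duplicate plates imaged at 4×.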

NCI-H460 = test system: NCI-H460
Outline: as §1

BEN = test system: BEN
Outline: as §1

HCC-15 = test system: HCC-15
Outline: as §1

NCI-H2405 = test system: NCI-H2405
Outline: as §1

EMC-BAC-2 = test system: EMC-BAC-2
Outline: as §1

HOP-62 = test system: HOP-62
Outline: as §1

NCI-H522 = test system: NCI-H522
Outline: as §1

201T = test system: 201T
Outline: as §1

NCI-H1563 = test system: NCI-H1563
Outline: as §1

NCI-H661 = test system: NCI-H661
Outline: as §1

LK-2 = settings: first compound 0.002 µM
Outline: as §1

CCNC(=O)c1noc(-c2cc(C(C)C)c(O)cc2O)c1-c1ccc(CN2CCOCC2)cc1 [Luminespib] + N=C(N)NC(=N)NCCc1ccccc1 [Phenformin] (partner 250 µM)
relative viability (A-427; first compound 0.002 µM): 0.354 | relative viability (A-427; first compound 0.006325 µM): 0.377 | relative viability (A-427; first compound 0.02 µM): 0.275 | relative viability (A-427; first compound 0.06325 µM): 0.101 | relative viability (A-427; first compound 0.2 µM): 0.128 | relative viability (NCI-H460; first compound 0.002 µM): 0.616 | relative viability (NCI-H460; first compound 0.006325 µM): 0.458 | relative viability (NCI-H460; first compound 0.02 µM): 0.0329 | relative viability (NCI-H460; first compound 0.06325 µM): 0.0168 | relative viability (NCI-H460; first compound 0.2 µM): 0.0232 | relative viability (BEN; first compound 0.002 µM): 0.259 | relative viability (BEN; first compound 0.006325 µM): 0.268 | relative viability (BEN; first compound 0.02 µM): 0.273 | relative viability (BEN; first compound 0.06325 µM): 0.216 | relative viability (BEN; first compound 0.2 µM): 0.199 | relative viability (HCC-15; first compound 0.002 µM): 0.429 | relative viability (HCC-15; first compound 0.006325 µM): 0.405 | relative viability (HCC-15; first compound 0.02 µM): 0.311 | relative viability (HCC-15; first compound 0.06325 µM): 0.162 | relative viability (HCC-15; first compound 0.2 µM): 0.114 | relative viability (NCI-H2405; first compound 0.002 µM): 0.417 | relative viability (NCI-H2405; first compound 0.006325 µM): 0.314 | relative viability (NCI-H2405; first compound 0.02 µM): 0.514 | relative viability (NCI-H2405; first compound 0.06325 µM): 0.193 | relative viability (NCI-H2405; first compound 0.2 µM): 0.196 | relative viability (EMC-BAC-2; first compound 0.002 µM): 0.529 | relative viability (EMC-BAC-2; first compound 0.006325 µM): 0.48 | relative viability (EMC-BAC-2; first compound 0.02 µM): 0.429 | relative viability (EMC-BAC-2; first compound 0.06325 µM): 0.254 | relative viability (EMC-BAC-2; first compound 0.2 µM): 0.175 | relative viability (HOP-62; first compound 0.002 µM): 0.674 | relative viability (HOP-62; first compound 0.006325 µM): 0.721 | relative viability (HOP-62; first compound 0.02 µM): 0.696 | relative viability (HOP-62; first compound 0.06325 µM): 0.364 | relative viability (HOP-62; first compound 0.2 µM): 0.165 | relative viability (NCI-H522; first compound 0.002 µM): 0.707 | relative viability (NCI-H522; first compound 0.006325 µM): 0.657 | relative viability (NCI-H522; first compound 0.02 µM): 0.601 | relative viability (NCI-H522; first compound 0.06325 µM): 0.546 | relative viability (NCI-H522; first compound 0.2 µM): 0.362 | relative viability (201T; first compound 0.002 µM): 0.396 | relative viability (201T; first compound 0.006325 µM): 0.465 | relative viability (201T; first compound 0.02 µM): 0.477 | relative viability (201T; first compound 0.06325 µM): 0.373 | relative viability (201T; first compound 0.2 µM): 0.24 | relative viability (NCI-H1563; first compound 0.002 µM): 0.66 | relative viability (NCI-H1563; first compound 0.006325 µM): 0.649 | relative viability (NCI-H1563; first compound 0.02 µM): 0.597 | relative viability (NCI-H1563; first compound 0.06325 µM): 0.455 | relative viability (NCI-H1563; first compound 0.2 µM): 0.465 | relative viability (NCI-H661; first compound 0.002 µM): 0.262 | relative viability (NCI-H661; first compound 0.006325 µM): 0.279 | relative viability (NCI-H661; first compound 0.02 µM): 0.27 | relative viability (NCI-H661; first compound 0.06325 µM): 0.241 | relative viability (NCI-H661; first compound 0.2 µM): 0.191 | relative viability (LK-2): 0.474
